Assay results taken from patent US8748624B2, “Picolinamido-propanoic acid derivatives useful as glucagon receptor antagonists” (Janssen Pharmaceutica NV, priority 2011, dated 2014).
Like-named read-outs stand apart in the source and are kept apart here.

Legend:
[1] = target: human glucagon receptor (GCGR) (Homo sapiens (Human), UniProt P47871); test: Inhibition of 125I-glucagon binding to membranes from HEK293 cells expressing the human glucagon receptor
Experimental: Inhibition ^125I-Glucagon Binding to Membranes from HEK293 Cells Expressing the Human Glucagon Receptor (GCGR)
Full-length human GCGR (Accession Number: NM000160) subcloned into pcDNA3.1 was stably transfected into HEK293 cells (hGluc-1 HEK) and maintained under G418 selection (500 μg/mL). Cell cultures were maintained in DMEM/F12 media supplemented with 10% FBS and 1% GlutaMax. Membranes were prepared from these cells as follows: cells were harvested from T225 flasks and re-suspended in hypotonic lysis buffer, 50 mM HEPES pH 7.4 supplemented with Complete Protease inhibitors (Boehringer Mannheim, Indianapolis, Ind.). Cells were dounced 20 times on ice and spun at 700×g to remove nuclei and unlysed cells. The resulting pellet was re-suspended in hypotonic lysis buffer and the above step was repeated. Supernatants from the low speed centrifugation were combined and subsequently spun at 100K×g for 1 hr at 4° C. and the resulting pellet was re-suspended in buffer containing 50 mM HEPES pH 7.4 and 10% sucrose and the protein concentration was adjusted at 1 mg/mL as determined in the BCA assay. Membranes were aliquoted and stored at −80° C. The binding assay was performed by a filtration method in a 384 well format. Membranes at a final protein concentration of 6 μg/well were incubated with ^125I-glucagon at 0.3 nM and in the presence of compound for 2 hours at room temperature in a total reaction volume of 40 μL per well. Assay buffer consisted of 50 mM HEPES, pH 7.4, 5 mM MgCl2, 1 mM CaCl2 and 0.2% BSA. 30 μL of the reaction was then transferred to PEI treated filter plates and followed by filter aspiration. Plates were then washed 5× and allowed to dry at room temperature overnight. The next day the bottom of the plate was covered with seal tape and scintillant was added. Total counts retained by the filters were quantified with a Top Count instrument. IC50's were generated by using a non-linear regression macro driven in Excel and converted to K's.

human GCGR = human GCGR (Homo sapiens (Human), UniProt P47871); test: Cellular functional assay, cAMP readout (glucagon-stimulated cAMP in HEK293 cells expressing human GCGR); format: cell-based; conditions: hGluc-1 HEK cells, LANCE TR-FRET, IC50 converted to Ki, average if tested more than once
Chain of human GCGR (P47871 26-477): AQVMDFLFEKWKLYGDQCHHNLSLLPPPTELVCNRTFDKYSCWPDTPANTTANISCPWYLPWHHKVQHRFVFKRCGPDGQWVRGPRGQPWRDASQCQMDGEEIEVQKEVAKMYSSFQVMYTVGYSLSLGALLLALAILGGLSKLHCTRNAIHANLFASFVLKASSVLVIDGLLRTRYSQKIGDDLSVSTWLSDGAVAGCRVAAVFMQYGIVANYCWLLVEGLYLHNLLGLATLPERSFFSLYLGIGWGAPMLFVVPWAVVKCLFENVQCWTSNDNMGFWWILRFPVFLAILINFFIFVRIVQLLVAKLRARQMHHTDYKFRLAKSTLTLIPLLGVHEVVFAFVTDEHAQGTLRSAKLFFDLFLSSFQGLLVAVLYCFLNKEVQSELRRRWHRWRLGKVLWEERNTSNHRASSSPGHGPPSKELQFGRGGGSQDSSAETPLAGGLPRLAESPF
Procedure, shortened: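 HEK293 cells stably transfected with full-length human GCGR were exposed to compound for 30 min before a 5-min challenge with […] (final) glucagon. Readout was TR-FRET (LANCE) cAMP versus standard curve; IC50s fitted by non-linear regression and converted to Ki values.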

[2] = membranes of hGluc-1 HEK cells, 125I-glucagon 0.3 nM, 2 hours room temperature, IC50 converted to Ki, average if tested more than once

Chain of human glucagon receptor (GCGR) (P47871 26-477): as above

| Compound | Ki [1, 2] [nM] | Ki (human GCGR) [nM] | Ki [1] [nM] |
| --- | --- | --- | --- |
| O=C(O)CCNC(=O)c1ccc(-c2cc(C(F)(F)F)ccc2CNc2ccc(-c3ccc(F)c(Cl)c3)c(Cl)c2)cn1 [Compound 35, 3-(5-(2-(((2,3′-dichloro-4′-fluoro-[1,1′-biphenyl]-4-yl)amino)methyl)-5-(trifluoromethyl)phenyl)picolinamido)propanoic acid] | 14.4 | 35 |  |
| O=C(O)CCNC(=O)c1ccc(-c2cc(Cl)ccc2C(=O)Nc2ccc(-c3ccc(F)cc3F)cc2)cn1 [Compound 36, 3-(5-(5-chloro-2-((2′,4′-difluoro-[1,1′-biphenyl]-4-yl)carbamoyl)phenyl)picolinamido)propanoic acid] | 67.3 | 95.1 |  |
| O=C(O)CCNC(=O)c1ccc(-c2cc(C(F)(F)F)ccc2CNc2ccc(-c3ccc(Cl)cc3F)c(Cl)c2)cn1 [Compound 37, 3-(5-(2-(((2,4′-dichloro-2′-fluoro-[1,1′-biphenyl]-4-yl)amino)methyl)-5-(trifluoromethyl)phenyl)picolinamido)propanoic acid] | 23.2 | 30 |  |
| O=C(O)CCNC(=O)c1ccc(-c2cc(C(F)(F)F)ccc2CNc2ccc(-c3cccc(C(F)(F)F)c3Cl)c(Cl)c2)cn1 [Compound 38, 3-(5-(2-(((2,2′-dichloro-3′-(trifluoromethyl)-[1,1′-biphenyl]-4-yl)amino)methyl)-5-(trifluoromethyl)phenyl)picolinamido)propanoic acid] | 22.5 | 22.4 |  |
| O=C(O)CCNC(=O)c1ccc(-c2cc(C(F)(F)F)ccc2CNc2ccc(-c3ccc(C(F)(F)F)c(F)c3)c(Cl)c2)cn1 [Compound 39, 3-(5-(2-(((2-chloro-3′-fluoro-4′-(trifluoromethyl)-[1,1′-biphenyl]-4-yl)amino)methyl)-5-(trifluoromethyl)phenyl)picolinamido)propanoic acid] | 26.6 | 47.4 |  |
| O=C(O)CCNC(=O)c1ccc(-c2cc(C(F)(F)F)ccc2CNc2ccc(-c3cccc(C(F)(F)F)c3Cl)cc2)cn1 [Compound 41, 3-(5-(2-(((2′-chloro-3′-(trifluoromethyl)-[1,1′-biphenyl]-4-yl)amino)methyl)-5-(trifluoromethyl)phenyl)picolinamido)propanoic acid] | 20.4 | 28.3 |  |
| O=C(O)CCNC(=O)c1ccc(-c2cc(C(F)(F)F)ccc2CNc2ccc(-c3ccc(C(F)(F)F)cc3Cl)c(Cl)c2)cn1 [Compound 42, 3-(5-(2-(((2,2′-dichloro-4′-(trifluoromethyl)-[1,1′-biphenyl]-4-yl)amino)methyl)-5-(trifluoromethyl)phenyl)picolinamido)propanoic acid] | 16.5 | 20 |  |
| Cc1cc(C(F)(F)F)ccc1-c1ccc(NCc2ccc(C(F)(F)F)cc2-c2ccc(C(=O)NCCC(=O)O)nc2)cc1Cl [Compound 43, 3-(5-(2-(((2-chloro-2′-methyl-4′-(trifluoromethyl)-[1,1′-biphenyl]-4-yl)amino)methyl)-5-(trifluoromethyl)phenyl)picolinamido)propanoic acid] | 17.2 | 21.9 |  |
| O=C(O)CCNC(=O)c1ccc(-c2cc(Cl)ccc2CNc2ccc(-c3ccc(Cl)cc3Cl)c(Cl)c2)cn1 [Compound 51, 3-(5-(5-chloro-2-(((2,2′,4′-trichloro-[1,1′-biphenyl]-4-yl)amino)methyl)phenyl)picolinamido)propanoic acid] | 16.8 | 34.1 |  |
| O=C(O)CCNC(=O)c1ccc(-c2cc(F)ccc2CNc2ccc(-c3ccc(C(F)(F)F)cc3)c(F)c2)cn1 [Compound 56, 3-(5-(5-fluoro-2-(((2-fluoro-4′-(trifluoromethyl)-[1,1′-biphenyl]-4-yl)amino)methyl)phenyl)picolinamido)propanoic acid] | 98.8 | 309 |  |
| O=C(O)CCNC(=O)c1ccc(-c2cc(F)ccc2CNc2ccc(-c3ccc(Cl)cc3Cl)c(F)c2)cn1 [Compound 57, 3-(5-(2-(((2′,4′-dichloro-2-fluoro-[1,1′-biphenyl]-4-yl)amino)methyl)-5-fluorophenyl)picolinamido)propanoic acid] | 74.2 | 205 |  |
| O=C(O)CCNC(=O)c1ccc(-c2cc(C(F)(F)F)ccc2CNc2ccc(-c3cccc(F)c3)cc2)cn1 [Compound 62, 3-(5-(2-(((3′-fluoro-[1,1′-biphenyl]-4-yl)amino)methyl)-5-(trifluoromethyl)phenyl)picolinamido)propanoic acid] | 37.4 | 175 |  |
| O=C(O)CCNC(=O)c1ccc(-c2cc(Cl)ccc2CNc2ccc(-c3ccc(F)cc3F)c(Cl)c2)cn1 [Compound 63, 3-(5-(5-chloro-2-(((2-chloro-2′,4′-difluoro-[1,1′-biphenyl]-4-yl)amino)methyl)phenyl)picolinamido)propanoic acid] | 22.6 | 188 |  |
| N#Cc1cccc(CNc2ccc(-c3ccc(Cl)cc3)cc2)c1-c1ccc(C(=O)NCCC(=O)O)nc1 [Compound 66, 3-(5-(2-(((4′-chloro-[1,1′-biphenyl]-4-yl)amino)methyl)-6-cyanophenyl)picolinamido)propanoic acid] | 68.7 | 1850 |  |

The next lines start with the values.

| Ki [1, 2] [nM] | Ki (human GCGR) [nM] | Ki [1] [nM] | Compound |
| --- | --- | --- | --- |
| 26.3 | 64.2 |  | O=C(O)CCNC(=O)c1ccc(-c2cc(C(F)(F)F)ccc2CNc2ccc(-c3ccc(Cl)cc3F)cc2)cn1 [Compound 40, 3-(5-(2-(((4′-chloro-2′-fluoro-[1,1′-biphenyl]-4-yl)amino)methyl)-5-(trifluoromethyl)phenyl)picolinamido)propanoic acid] |
| 18.4 | 60.1 |  | O=C(O)CCNC(=O)c1ccc(-c2cc(C(F)(F)F)ccc2CNc2ccc(-c3ccc(Cl)cc3)cc2)cn1 [Compound 44, 3-(5-(2-(((4′-chloro-[1,1′-biphenyl]-4-yl)amino)methyl)-5-(trifluoromethyl)phenyl)picolinamido)propanoic acid] |
| 103 | 495 |  | O=C(O)CCNC(=O)c1ccc(-c2cc(F)ccc2CNc2ccc(-c3ccc(Cl)c(Cl)c3)c(F)c2)cn1 [Compound 53, 3-(5-(2-(((3′,4′-dichloro-2-fluoro-[1,1′-biphenyl]-4-yl)amino)methyl)-5-fluorophenyl)picolinamido)propanoic acid] |
| 48.5 | 220 |  | COc1cc(NCc2ccc(Cl)cc2-c2ccc(C(=O)NCCC(=O)O)nc2)ccc1-c1ccc(C(F)(F)F)cc1 [Compound 54, 3-(5-(5-chloro-2-(((2-methoxy-4′-(trifluoromethyl)-[1,1′-biphenyl]-4-yl)amino)methyl)phenyl)picolinamido)propanoic acid] |
| 156 | 650 |  | O=C(O)CCNC(=O)c1ccc(-c2cc(Cl)ccc2CNc2ccc(-c3ccc(Cl)c(Cl)c3)c(C(F)(F)F)c2)cn1 [Compound 55, 3-(5-(5-chloro-2-(((3′,4′-dichloro-2-(trifluoromethyl)-[1,1′-biphenyl]-4-yl)amino)methyl)phenyl)picolinamido)propanoic acid] |
| 47.3 | 58.4 |  | O=C(O)CCNC(=O)c1ccc(-c2cc(Cl)ccc2CNc2ccc(-c3ccc(Cl)c(Cl)c3)cc2)cn1 [Compound 58, 3-(5-(5-chloro-2-(((3′,4′-dichloro-[1,1′-biphenyl]-4-yl)amino)methyl)phenyl)picolinamido)propanoic acid] |
| 72.4 | 320 |  | CC(C)(C)c1ccc(-c2ccc(NCc3ccc(Cl)cc3-c3ccc(C(=O)NCCC(=O)O)nc3)cc2)cc1 [Compound 59, 3-(5-(2-(((4′-(tert-butyl)-[1,1′-biphenyl]-4-yl)amino)methyl)-5-chlorophenyl)picolinamido)propanoic acid] |
| 194 | 1370 |  | COc1ccc(-c2ccc(C(=O)NCCC(=O)O)nc2)c(CNc2ccc(-c3ccc(Cl)cc3Cl)cc2)c1 [Compound 60, 3-(5-(2-(((2′,4′-dichloro-[1,1′-biphenyl]-4-yl)amino)methyl)-4-methoxyphenyl)picolinamido)propanoic acid] |
|  | 479 | 97.7 | COc1ccc(-c2ccc(C(=O)NCCC(=O)O)nc2)c(CNc2ccc(-c3ccc(Cl)c(Cl)c3)cc2)c1 [Compound 61, 3-(5-(2-(((3′,4′-dichloro-[1,1′-biphenyl]-4-yl)amino)methyl)-4-methoxyphenyl)picolinamido)propanoic acid] |
| 139 | 390 |  | Cc1cccc(-c2ccc(C(=O)NCCC(=O)O)nc2)c1CNc1ccc(-c2ccc(Cl)cc2)cc1 [Compound 65, 3-(5-(2-(((4′-chloro-[1,1′-biphenyl]-4-yl)amino)methyl)-3-methylphenyl)picolinamido)propanoic acid] |
